Measurements published in patent publication US11272709B2, “Amidine substituted benzoyl derivatives useful as herbicides” (Syngenta Participations AG, priority 2018, dated 2022).

What was measured:
Format in all cases: in vivo
Settings in all cases: 500 g/h, evaluated after 13 days
[1] = test system: Amaranthus retoflexus (AMARE); assay: Post-emergence herbicidal glasshouse test, Amaranthus retoflexus (AMARE)
Experimental: (§1) Seeds of a variety of test species are sown in standard soil in pots (Lolium perenne (LOLPE), Amaranthus retoflexus (AMARE), Abutilon theophrasti (ABUTH), Setaria faberi (SETFA), Echinochloa crus-galli (ECHCG), Ipomoea hederacea (IPOHE)). After cultivation for one day (pre-emergence) or after 8 days cultivation (post-emergence) under controlled conditions in a glasshouse (at 24/16° C., day/night; 14 hours light; 65% humidity), the plants are sprayed with an aqueous spray solution derived from the formulation of the technical active ingredient in acetone/water (50:50) solution containing 0.5% Tween 20 (polyoxyethelyene sorbitan monolaurate, CAS RN 9005-64-5). Compounds are applied at 500 g/h unless otherwise indicated. The test plants are then grown in a glasshouse under controlled conditions in a glasshouse (at 24/16° C., day/night; 14 hours light; 65% humidity) and watered twice daily. After 13 days for pre and post-emergence, the test is evaluated for the percentage damage caused to the plant. The biological activities are shown in the following table on a five point scale (5=80-100%; 4=60-79%; 3=40-59%; 2=20-39%; 1=0-19%).

[2] = test system: Abutilon theophrasti (ABUTH); assay: Pre-emergence herbicidal glasshouse test, Abutilon theophrasti (ABUTH)
Experimental: as §1

[3] = test system: Ipomoea hederacea (IPOHE); assay: Post-emergence herbicidal glasshouse test, Ipomoea hederacea (IPOHE)
Experimental: as §1

[4] = test system: Ipomoea hederacea (IPOHE); assay: Pre-emergence herbicidal glasshouse test, Ipomoea hederacea (IPOHE)
Experimental: as §1

[5] = test system: Abutilon theophrasti (ABUTH); assay: Post-emergence herbicidal glasshouse test, Abutilon theophrasti (ABUTH)
Experimental: as §1

[6] = test system: Echinochloa crus-galli (ECHCG); assay: Post-emergence herbicidal glasshouse test, Echinochloa crus-galli (ECHCG)
Experimental: as §1

[7] = test system: Echinochloa crus-galli (ECHCG); assay: Pre-emergence herbicidal glasshouse test, Echinochloa crus-galli (ECHCG)
Experimental: as §1

Setaria faberi (SETFA) [8] = assay: Post-emergence herbicidal glasshouse test, Setaria faberi (SETFA)
Experimental: as §1

[9] = test system: Amaranthus retoflexus (AMARE); assay: Pre-emergence herbicidal glasshouse test, Amaranthus retoflexus (AMARE)
Experimental: as §1

Setaria faberi (SETFA) [10] = assay: Pre-emergence herbicidal glasshouse test, Setaria faberi (SETFA)
Experimental: as §1

Row | Compound | POST Application AMARE, percentage damage (five point scale) [1] | PRE Application ABUTH, percentage damage (five point scale) [2] | POST Application IPOHE, percentage damage (five point scale) [3] | PRE Application IPOHE, percentage damage (five point scale) [4] | POST Application ABUTH, percentage damage (five point scale) [5] | POST Application ECHCG, percentage damage (five point scale) [6] | PRE Application ECHCG, percentage damage (five point scale) [7] | POST Application SETFA, percentage damage (five point scale) (Setaria faberi (SETFA) [8]) | PRE Application AMARE, percentage damage (five point scale) [9] | PRE Application SETFA, percentage damage (five point scale) (Setaria faberi (SETFA) [10])
1 | CCN(C)C=Nc1c(S(C)(=O)=O)ccc(C(=O)Nc2nnnn2C)c1C [Compound 1.027] | 5 (5=80-100%) | 5 (5=80-100%) | 5 (5=80-100%) | 5 (5=80-100%) | 5 (5=80-100%) | 5 (5=80-100%) | 5 (5=80-100%) | 5 (5=80-100%) | 5 (5=80-100%) | 5 (5=80-100%)
2 | CCN(C=Nc1c(S(C)(=O)=O)ccc(C(=O)Nc2nnc(C)o2)c1C)CC [Compound 2.031] | 5 (5=80-100%) | 4 (4=60-79%) | 4 (4=60-79%) | 4 (4=60-79%) | 5 (5=80-100%) | 5 (5=80-100%) | 5 (5=80-100%) | 5 (5=80-100%) | 5 (5=80-100%) | 5 (5=80-100%)
3 | CCCn1nnnc1NC(=O)c1ccc(S(C)(=O)=O)c(N=CN(C)C)c1C [Compound 7.002] | 5 (5=80-100%) | 5 (5=80-100%) | 4 (4=60-79%) | 5 (5=80-100%) | 5 (5=80-100%) | 5 (5=80-100%) | 5 (5=80-100%) | 5 (5=80-100%) | 5 (5=80-100%) | 5 (5=80-100%)
4 | Cc1nnc(NC(=O)c2ccc(S(C)(=O)=O)c(N=CN(C)CC(F)(F)F)c2C)o1 [Compound 2.143] | 5 (5=80-100%) | 5 (5=80-100%) | 5 (5=80-100%) | 5 (5=80-100%) | 5 (5=80-100%) | 5 (5=80-100%) | 5 (5=80-100%) | 5 (5=80-100%) | 5 (5=80-100%) | 5 (5=80-100%)
5 | CCN(C=Nc1c(C(F)(F)F)ccc(C(=O)Nc2nnnn2C)c1Cl)CC [Compound 1.055] | 5 (5=80-100%) | 5 (5=80-100%) | 5 (5=80-100%) | 5 (5=80-100%) | 5 (5=80-100%) | 5 (5=80-100%) | 5 (5=80-100%) | 5 (5=80-100%) | 5 (5=80-100%) | 5 (5=80-100%)
6 | CN(C)C=Nc1c(Cl)ccc(C(=O)Nc2nnnn2C)c1Cl [Compound 1.041] | 5 (5=80-100%) | 5 (5=80-100%) | 5 (5=80-100%) | 5 (5=80-100%) | 5 (5=80-100%) | 5 (5=80-100%) | 5 (5=80-100%) | 5 (5=80-100%) | 5 (5=80-100%) | –
